Where a SMILES comes first, the peptide text is derived from it. The star is where a group is joined. Cbz = O=C(OCc1ccccc1)*

One assay relates to CAR-SZ17 fusion. In words: Degradation of CAR-SZ17 fusion in Jurkat cells. It counts as cell-based. Particulars: degron directly fused to the CAR. The protocol: The ability of the STUD to degrade a CAR in Jurkat cells was tested by generating a CAR construct with SynZIP17 fused to its C-terminus. However, while these STUDs worked to some extent, none of them were able to completely knockdown CAR expression (see FIG. 8).

Another assay addresses GFP-SZ17 [GFP: P42212]. Briefly: cell-based or functional assay.
Assay [1] deals with proteasomal and lysosomal degradation pathways. In words: Inhibitor assays: rescue of GFP fluorescence in Jurkat T cells expressing STUD and GFP target. Type of assay: cell-based. Particulars: 5 μM MG-132, 1 μM MLN4924 or 100 nM Bafilomycin A1; 37 C for 5 hours; cells expressing functional STUD and GFP target. The protocol: 72 hours after removal of lentivirus, the Jurkat T cells and an untransduced control cell line were treated with either 5 μM of the proteasomal inhibitor MG-132, 1 μM of the cullin ring ligase inhibitor MLN4924, 100 nM of the lysosomal inhibitor Bafilomycin A1, or DMSO vehicle control and incubate at 37 C for 5 hours. Using flow cytometry to measure GFP fluorescence following treatment, it was observed that GFP fluorescence can indeed be rescued with MG-132 and MLN4924 when cells express both a functional STUD and a GFP target relative to DMSO vehicle control.
Inhibitor Assays: 100,000 cells were plated in a 96 well round bottom plate with either 5 μM MG-132 (Sigma-Aldrich #M7449-200UL), 1 μM MLN4924 (Active Biochem #A-1139), 100 nM Bafilomycin A1 (Enzo Life Sciences #BML-CM110-0100), or DMSO vehicle control and incubated at 37 C for 5 hours. After incubation, cells were pelleted by centrifugation at 400×g for 4 minutes. Supernatant was then removed and cells were washed once with 200 μL PBS. Cells were pelleted again (400×g for 4 minutes) and resuspended in flow buffer (PBS+2% FBS) for assay by flow cytometry.

The next assay relates to proteasome. In words: MG132 proteasome inhibitor treatment of primary human CD4+ T cells expressing GFP nanobody STUD. Type of assay: cell-based. Particulars: 5 uM MG132, three hours; cells expressing functional nanobody STUD (nanobody(K->R)+Bonger) only. As for the experimental part:
The mechanism of how the STUD reduces GFP was explored. Primary human CD4+ T cells expressing the GFP nanobody STUD were fed with the MG132 proteasome inhibitor and the change in fluorescence was measured over time. Cells expressing a functional STUD should display an increase in fluorescence over time as the proteasome inhibitor took effect.
Using proteasome inhibitor to explore cytosolic GFP mechanism: To ascertain the mechanism by which the STUD degrades cytosolic GFP, the cells were inoculated with 5 uM of the proteasome inhibitor MG132 for 1 and 3 hours. Cells were then washed with PBS and analyzed by flow cytometry. Using the same 2-plasmid system as described above, changes in GFP fluorescence relative to controls were measured.

For another assay, the system named is cullin ring ligase. In words: MLN4924 rescue of STUD knockdown of CD19BBz CAR expression in CD8+ primary T cells. Type of assay: cell-based, human. The following applies: 1 μM MLN4924 for 5 hours at 37 C; CD19BBz CAR with STUD.
A further assay has as its system NALM6 target cells. In words: MLN dose response: ON switch CAR, lysis of NALM6 target cells by CD8+ primary human T cells. It counts as cell-based. Particulars: MLN4924 1 μM to 0.015625 μM; 72 hours at 37 C; antiCD19BBz CAR fused to SynZip plus memSTUD. As for the experimental part:
CD8+ primary human T cells were engineered with an antiCD19BBz CAR fused to a SynZip and a memSTUD that binds the SynZip using the same plasmids outlined in FIG. 14A by lentiviral transduction. As a control, CD8+ primary human T cells were lentivirally transduced with an antiCD19BBz and a SynZip memSTUD which cannot bind the CAR. These engineered cells and an untransduced control were cocultured with NALM6 target cells for 72 hours at 37 C in the presence of MLN4924 ranging from 1 μM to 0.015625 μM and a DMSO vehicle control. After coculture, target cell lysis was assayed by flow cytometry. Specific target cell lysis of each cell line relative to NALM6 cells cultured alone in the same conditions was then calculated.
Co-culture assays: For all assays, T cells and target cells were co-cultured at a 1:1 ratio with cell numbers varying per assay. All assays contained between 10,000 and 50,000 of each cell type. The Countess II Cell Counter (ThermoFisher) was used to determine cell counts for all assays set up. T cells and target cells were mixed in 96-well round bottom tissue culture plates in 200 μL T cell media, and then plates were centrifuged for 1 min at 400×g to initiate interaction of the cells prior to incubation at 37 C.
MLN dose response: 25,000 CD8+ primary human T cells were seeded into 96 well round bottom plates in 100 μL fresh media. […]

As to Arg-Arg-Arg-Gly (RRRG) [Bonger degron], in the assay on CAR-SZ17 fusion, the “reduction of CAR expression” value is given as “over 90%”.

“SynZIP18(K->R)-5xGS-RRRG (designed binder)” returned a median normalized GFP fluorescence (flow cytometry, Jurkat T cells), fold change with GFP-SZ17 [GFP: P42212] of 42 fold.

For `CO/C1=C\C(C)=C\[C@@H](C)[C@@H](O)[C@@H](C)C/C(C)=C/C=C/[C@H](OC)[C@@H]([C@@H](C)[C@@H](O)[C@H](C)[C@@]2(O)C[C@@H](O)[C@H](C)[C@@H](C(C)C)O2)OC1=O` [Bafilomycin A1], the “GFP fluorescence relative to DMSO vehicle control” value in assay [1] is “No changes to GFP fluorescence”.

In the case of `CC(C)C[C@@H](C=O)NC(=O)[C@H](CC(C)C)NC(=O)[C@H](CC(C)C)NC(=O)OCc1ccccc1` [MG-132] (Cbz-Leu-Leu-Leu-aldehyde), the “change in GFP fluorescence over time” value in the assay on proteasome is “increase in GFP fluorescence”. Moreover, in assay [1], the “GFP fluorescence relative to DMSO vehicle control” value is “rescued”.

For `NS(=O)(=O)OC[C@@H]1C[C@@H](n2ccc3c(N[C@H]4CCc5ccccc54)ncnc32)C[C@@H]1O` [MLN4924], the “GFP fluorescence relative to DMSO vehicle control” value in assay [1] is “rescued”. Besides, the “CAR expression (CAR fluorescence by antibody stain)” value with cullin ring ligase is on record as “rescue STUD knockdown of CAR expression”. Further, in the assay on NALM6 target cells, the “specific target cell lysis” value is “dose dependent”.

The values are drawn from US20250092419A1, “SYNTHETIC TARGETERS OF UBIQUITINATION AND DEGRADATION (STUDS) AS EFFECTORS FOR FEEDBACK CONTROL IN MAMMALIAN CELLS” (The Regents of the University of California, priority 2022, published 2025).
